Common to all, as to format: cell-based
The subject of test [1] is human immortalized podocytes inducibly expressing APOL1 G2. The test can be described thus: APOL1 G2 podocyte cell rescue assay (Example B4). The conditions noted are these: differentiated human podocytes, doxycycline-induced APOL1 G2, CellTiter-Glo, geometric mean of at least 2 runs, † = single run. On the procedure: APOL1 G2 human immortalized podocyte viability assay for measurement of cytotoxicity reversal by compound (APOL1 G2 podocyte cell rescue assay).
Cell Handling. The hTERT-immortalized kidney podocyte cell line was procured from the laboratory of Dr. Moin Saleem at the University of Bristol, UK (Nephrology 17 (2012) 525-531; doi:10.1111/j.1440-1797.2012.01619.x; herein incorporated by reference in its entirety). Parental and engineered cell lines were cultured in RPMI 1640 media (Gibco, 11875093) with 10% Tet System Approved FBS (Takara, 631101). The engineered cell line was maintained under selection (2.5 μg/mL puromycin). Cell lines were maintained and engineered at 33° C. Cell cultures were transferred to 37° C. for 10 to 14 days to initiate differentiation (Nephrology 17 (2012) 525-531; doi:10.1111/j.1440-1797.2012.01619.x; herein incorporated by reference in its entirety). During this time, media was refreshed every 3 days. After differentiation, cells engineered to inducibly express APOL1 G2 were used in the podocyte cell rescue assay.
Cell Line Engineering. The APOL1 G2 coding sequence was cloned into the pLVX-TetOne-Puro vector and verified by sequencing (Genscript Biotech). This construct was designed to have a C-terminal HiBiT tag. Lentiviral packaging of the vector was conducted using the Lenti-X Packaging Single Shots (VSVG) system according to manufacturer instructions (Takara Bio, 631275). A stable cell line was generated by transfecting the parental podocyte cell line with the concentrated virus in media with 5 μg/mL polybrene (Sigma, TR-1003-G). Media was changed the following day. 72 hours post transfection, 2.5 μg/mL puromycin (Gibco, A1113803) was added to the cells and cells were maintained in selection media thereafter. This APOL1 G2 stable cellular pool was subjected to a stringent limiting dilution to generate a pure stable clone (Podocyte/pLVX-TetOne APOL1 G2/clone D10) capable of inducible expression of APOL1 G2.
Assay Setup. T175 flasks containing differentiated podocytes engineered to inducibly express APOL1 G2 (Podocyte/pLVX-TetOne APOL1 G2/clone D10) were washed once with 15 mL of DPBS (Thermo Fisher, 14190-144). These flasks were each trypsinized with 3 mL of prewarmed TrypLE Express (Gibco, 12605-010) and incubated at 37° C. with 5% CO2 until cells detached and neutralized with 7 mL of prewarmed assay media (RPMI 1640 media with 10% Tet System Approved FBS, no selection agent). Cells were pooled and the resulting suspension was gently mixed. The cell suspension was counted using a Countess Cell Counting Chamber (Invitrogen) and the cell concentration was adjusted to 240,000 cells/mL using assay media. Next, 25 μL of a 480 ng/mL working stock of doxycycline diluted in assay media was added to an assay ready plate. All experiments were performed in 384-well, white, solid bottom, tissue culture treated plates (Greiner, 781080). The assay ready compound plates were generated with duplicate 8-point compound dilution series that consisted of 3-fold stepwise dilutions (0.4% DMSO final). The plates were centrifuged at 1000 rpm for 1 minute. 25 μL of diluted cell suspension (final cell density=6,000 cells/well) was added to each well. The plates were centrifuged again at 1000 rpm for 1 minute and then incubated in a humidified incubator (37° C. with 5% CO2). After 95 hours, the assay plates were removed from the incubator and allowed to equilibrate to room temperature for 1 hour. CellTiter-Glo® reagent (Promega, G7570) was prepared according to the manufacturer's instructions. 25 μL of CellTiter-Glo® reagent was added to each well. Assay plates were sealed with foil and mixed for 5 minutes on an orbital shaker (500 rpm) to induce cell lysis. Plates were centrifuged at 1000 rpm for 1 minute. 10 minutes after CellTiter-Glo® reagent addition, an Envision plate reader (Perkin Elmer) was used to measure the luminescent signal of each assay plate. Collaborative Drug Discovery software was utilized for graphing data. […]
On the technique in general: Cellular ATP, detected with luciferase, serves as a proxy for viable cell number.

In test [2] the test system is HEK293 clonal cell line overexpressing APOL1 G1. Put plainly: APOL1 G1 HEK293 cell rescue assay (Example B3). The conditions noted are these: geometric mean of at least 2 runs, † = single run, ¥ = concentration at 50% rescue estimated (no sigmoidal curve). The procedure, abridged: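 HEK293 clonal line overexpressing APOL1 G1; EC50 is half-maximal reversal of APOL1-induced cell death. Values are the geometric mean of ≥2 runs on separate days, each run the average of duplicate wells. Where no sigmoidal curve could be fitted, the concentration giving 50% rescue was estimated.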

In test [3] the test system is HEK293 cells overexpressing APOL1 G2. The test can be described thus: APOL1 G2 HEK293 cell rescue assay (reversal of cell death caused by overexpression of APOL1). The conditions noted are these: geometric mean of at least 2 assay runs, † = single assay run. The procedure, abridged: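 EC50 is the half-maximal effective concentration for reversing cell death driven by APOL1 G2 overexpression in HEK293 cells. Reported as geometric mean of at least 2 runs on separate days, each run averaging duplicate wells per plate; some values from a single run.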

Test [4] has as its system Trypanosoma brucei Lister 427 VSG221 with APOL1 G0 recombinant protein. Put plainly: APOL1 G0 trypanosome cell rescue assay (Example B5). The conditions noted are these: Trypanosoma brucei, 20 h, read-out: APOL1 G0 Trypanosome Rescue EC50, Trypanosoma brucei Lister 427 VSG221 with APOL1 G0 recombinant protein, 20 hours, CellTiter-Glo; geometric mean of at least 2 assay runs; † = single assay run. The procedure, abridged:
(§1)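 Recombinant mature APOL1 (residues 28-398, His-tag removed, E. coli-expressed, refolded from inclusion bodies, DDM buffer) at […] added with 250 trypanosomes/well in modified HMI-9 media. Duplicate 11-point 2-fold compound series, 0.4% DMSO; 20 h at 37° C, 5% CO2, then CellTiter-Glo luminescence for viability.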

For test [5], the system named is Trypanosoma brucei Lister 427 VSG221 with APOL1 G1 recombinant protein. The test can be described thus: APOL1 G1 trypanosome cell rescue assay (Example B5). The conditions noted are these: Trypanosoma brucei, 20 h, read-out: APOL1 G1 Trypanosome Rescue EC50, Trypanosoma brucei Lister 427 VSG221 with APOL1 G1 recombinant protein, 20 hours, CellTiter-Glo; geometric mean of at least 2 assay runs; † = single assay run. The procedure, abridged:
as §1

Test [6] has as its system Trypanosoma brucei Lister 427 VSG221 with APOL1 G2 recombinant protein. Put plainly: APOL1 G2 trypanosome cell rescue assay (Example B5). The conditions noted are these: Trypanosoma brucei, 20 h, read-out: APOL1 G2 Trypanosome Rescue EC50, Trypanosoma brucei Lister 427 VSG221 with APOL1 G2 recombinant protein, 20 hours, CellTiter-Glo; geometric mean of at least 2 assay runs; † = single assay run. The procedure, abridged:
as §1

[7] abbreviates: Homo sapiens, HEK293, HEK293 clonal line overexpressing APOL1 G1.
Where [8] appears, read: Homo sapiens, HEK293, HEK293 overexpressing APOL1 G2.

Molecules are shown by their SMILES.

One may read the EC50 as the concentration that produces a half-maximal response.

Turning to `O=C(NC1CCS(=O)(=O)C1)c1ccc(OCCN2CCC3(CC2)C(=O)Nc2ccc(Cl)cc23)cc1F` (single isomer, unassigned) [Compound 242, 4-(2-{5-chloro-2-oxo-1,2-dihydrospiro[indole-3,4′-piperidin]-1′-yl}ethoxy)-N-[(3S) or (3R)-1,1-dioxo-1λ^6-thiolan-3-yl]-2-fluorobenzamide], the EC50 is 0.0197 µM in test [1], 0.316 µM in test [2] (setting [7]) and 0.074 µM in test [3] (setting [8]).

As for `O=C(NC1CCS(=O)(=O)C1)c1ccc(OCCN2CCC3(CC2)C(=O)Nc2ccc(Cl)cc23)cc1F` (single isomer, unassigned) [Compound 243, 4-(2-{5-chloro-2-oxo-1,2-dihydrospiro[indole-3,4′-piperidin]-1′-yl}ethoxy)-N-[(3R) or (3S)-1,1-dioxo-1λ^6-thiolan-3-yl]-2-fluorobenzamide], the results for the EC50 in test [1], in test [2] (HEK293 clonal line overexpressing APOL1 G1) and in test [3] (HEK293 overexpressing APOL1 G2) were 0.00411 µM, 0.208 µM and 0.046 µM, respectively.

Consider `O=C(NC1CCS(=O)(=O)CC1)c1ccc(OCCN2CCC3(CC2)C(=O)Nc2ccc(Cl)cc23)cc1F` [Compound 240, 4-(2-{5-chloro-2-oxo-1,2-dihydrospiro[indole-3,4′-piperidin]-1′-yl}ethoxy)-N-(1,1-dioxo-1λ^6-thian-4-yl)-2-fluorobenzamide], for which the EC50 in test [1] (Homo sapiens) was 0.0139 µM; in test [2] (setting [7]) it was 0.282 µM; in test [3] (setting [8]) it was 0.0526 µM.

For the compound `O=C1Nc2ccc(Cl)cc2C12CCN(CCOc1cnc(CCO)nc1)CC2` [Compound 331, 5-chloro-1′-(2-{[2-(2-hydroxyethyl)pyrimidin-5-yl]oxy}ethyl)-1,2-dihydrospiro[indole-3,4′-piperidin]-2-one], the half-maximal effective concentration (EC50) is 0.0857 µM in test [1] (Homo sapiens), 0.44 µM in test [2] (setting [7]) and 0.166 µM in test [3] (setting [8]).

For the compound `C[C@]1(O)C[C@@H](n2c(=O)n(CO)c3cc(OCCN4CCC5(CC4)C(=O)Nc4ccc(C#N)cc45)cc(C(F)(F)F)c32)C1` [Compound 469, 1′-(2-{[3-(hydroxymethyl)-2-oxo-1-[(cis)-3-hydroxy-3-methylcyclobutyl]-7-(trifluoromethyl)-2,3-dihydro-1H-1,3-benzodiazol-5-yl]oxy}ethyl)-2-oxo-1,2-dihydrospiro[indole-3,4′-piperidine]-5-carbonitrile], the EC50 in test [4] was 0.00976 µM; in test [5], 0.0155 µM; in test [2] (setting [7]), 0.0487 µM; in test [6] it was 0.00533 µM; in test [3] (setting [8]), 0.0199 µM.

The values are drawn from US12344610B2, “APOL1 inhibitors and methods of use” (Maze Therapeutics, Inc., priority 2022, dated 2025).
